From ChEMBL document CHEMBL1201862, “PubChem BioAssay data set” (2004)
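Tested at 5 concentrations; 48 h exposure; 96-well plates; endpoints linearly interpolated, else capped at highest concentration. Here, GI50 denotes the concentration required for 50% inhibition of growth.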 Activity calls are given as the source filed them. No stated cut-off is given here; in the data, active = GI50 up to about 1.1 µM and inactive = higher.

How the values were obtained:
Assay in all cases: NCI-60 cell line screen, 48 h
RXF 393 = system: RXF 393
786-0 = system: 786-0
SK-OV-3 = system: SK-OV-3
SW-620 = system: SW-620
MCF7 = system: MCF7
HOP-62 = system: HOP-62
SF-268 = system: SF-268
UACC-257 = system: UACC-257
SNB-19 = system: SNB-19
ACHN = system: ACHN
SR = system: SR
UACC-62 = system: UACC-62
SK-MEL-28 = system: SK-MEL-28
NCI-H23 = system: NCI-H23
DU-145 = system: DU-145
OVCAR-5 = system: OVCAR-5
NCI-H522 = system: NCI-H522
HOP-92 = system: HOP-92
KM12 = system: KM12
BT-549 = system: BT-549
MDA-MB-231 = system: MDA-MB-231
SF-295 = system: SF-295
Malme-3M = system: Malme-3M
IGROV-1 = system: IGROV-1
U-251 = system: U-251
HL-60 = system: HL-60
SN12C = system: SN12C
K562 = system: K562
NCI-H460 = system: NCI-H460
OVCAR-3 = system: OVCAR-3
SF-539 = system: SF-539
MDA-N = system: MDA-N
PC-3 = system: PC-3
OVCAR-4 = system: OVCAR-4
OVCAR-8 = system: OVCAR-8
SNB-75 = system: SNB-75
TK-10 = system: TK-10
M14 = system: M14
HCT-15 = system: HCT-15
COLO 205 = system: COLO 205
Hs-578T = system: Hs-578T
LOX IMVI = system: LOX IMVI
RPMI-8226 = system: RPMI-8226
NCI-H226 = system: NCI-H226
NCI/ADR-RES = system: NCI/ADR-RES
EKVX = system: EKVX
HT-29 = system: HT-29
MDA-MB-435 = system: MDA-MB-435
CAKI-1 = system: CAKI-1
SK-MEL-2 = system: SK-MEL-2
HCT-116 = system: HCT-116
CCRF-CEM = system: CCRF-CEM
HCC 2998 = system: HCC 2998
A549 = system: A549
MOLT-4 = system: MOLT-4
T47D = system: T47D
SK-MEL-5 = system: SK-MEL-5
UO-31 = system: UO-31

## Cc1nn(C(=O)c2ccncc2)c2c1C(c1ccccc1O)SC(=N)N2 (stereo not drawn)
RXF 393
  GI50: > 10 µM (inactive)
786-0
  GI50: > 10 µM (inactive)
SK-OV-3
  GI50: > 10 µM (inactive)
SW-620
  GI50: > 10 µM (inactive)
MCF7
  GI50: > 10 µM (inactive)
HOP-62
  GI50: > 10 µM (inactive)
SF-268
  GI50: > 10 µM (inactive)
UACC-257
  GI50: > 10 µM (inactive)
SNB-19
  GI50: > 10 µM (inactive)
ACHN
  GI50: > 10 µM (inactive)
SR
  GI50: > 10 µM (inactive)
UACC-62
  GI50: > 10 µM (inactive)
SK-MEL-28
  GI50: > 10 µM (inactive)
NCI-H23
  GI50: > 10 µM (inactive)
DU-145
  GI50: > 10 µM (inactive)
OVCAR-5
  GI50: > 10 µM (inactive)
NCI-H522
  GI50: > 10 µM (inactive)
HOP-92
  GI50: > 10 µM (inactive)
KM12
  GI50: > 10 µM (inactive)
BT-549
  GI50: > 10 µM (inactive)
MDA-MB-231
  GI50: > 10 µM (inactive)
SF-295
  GI50: > 10 µM (inactive)
Malme-3M
  GI50: > 10 µM (inactive)
IGROV-1
  GI50: > 10 µM (inactive)
U-251
  GI50: > 10 µM (inactive)
HL-60
  GI50: > 10 µM (inactive)
SN12C
  GI50: > 10 µM (inactive)
K562
  GI50: > 10 µM (inactive)
NCI-H460
  GI50: > 10 µM (inactive)
OVCAR-3
  GI50: > 10 µM (inactive)
SF-539
  GI50: > 10 µM (inactive)
MDA-N
  GI50: > 10 µM (inactive)
PC-3
  GI50: > 10 µM (inactive)
OVCAR-4
  GI50: > 10 µM (inactive)
OVCAR-8
  GI50: > 10 µM (inactive)
SNB-75
  GI50: > 10 µM (inactive)
TK-10
  GI50: > 10 µM (inactive)
M14
  GI50: > 10 µM (inactive)
HCT-15
  GI50: > 10 µM
COLO 205
  GI50: > 10 µM (inactive)
Hs-578T
  GI50: > 10 µM (inactive)
LOX IMVI
  GI50: > 10 µM (inactive)
RPMI-8226
  GI50: > 10 µM (inactive)
NCI-H226
  GI50: > 10 µM (inactive)
NCI/ADR-RES
  GI50: > 10 µM (inactive)
EKVX
  GI50: > 10 µM (inactive)
HT-29
  GI50: > 10 µM (inactive)
MDA-MB-435
  GI50: > 10 µM (inactive)
CAKI-1
  GI50: > 10 µM (inactive)
SK-MEL-2
  GI50: > 10 µM (inactive)
HCT-116
  GI50: > 10 µM (inactive)
CCRF-CEM
  GI50: > 10 µM (inactive)
HCC 2998
  GI50: > 10 µM (inactive)
A549
  GI50: > 10 µM (inactive)
MOLT-4
  GI50: > 10 µM (inactive)
T47D
  GI50: > 10 µM (inactive)
SK-MEL-5
  GI50: > 10 µM (inactive)

## CCSC1=N/C(=C/c2ccccc2O)C(=O)N1
RXF 393
  GI50: 26.4 µM (inactive)
786-0
  GI50: 28.5 µM (inactive)
SK-OV-3
  GI50: 31.7 µM (inactive)
SW-620
  GI50: > 100 µM (inactive)
MCF7
  GI50: > 100 µM (inactive)
HOP-62
  GI50: 41.1 µM (inactive)
SF-268
  GI50: 83.2 µM (inactive)
UACC-257
  GI50: > 100 µM (inactive)
SNB-19
  GI50: > 100 µM (inactive)
ACHN
  GI50: 39.2 µM (inactive)
SR
  GI50: 63 µM (inactive)
UACC-62
  GI50: > 100 µM (inactive)
SK-MEL-28
  GI50: > 100 µM (inactive)
NCI-H23
  GI50: > 100 µM (inactive)
DU-145
  GI50: > 100 µM (inactive)
OVCAR-5
  GI50: > 100 µM (inactive)
NCI-H522
  GI50: > 100 µM (inactive)
HOP-92
  GI50: 89.1 µM (inactive)
KM12
  GI50: 51.1 µM (inactive)
BT-549
  GI50: > 100 µM (inactive)
MDA-MB-231
  GI50: 90.6 µM (inactive)
SF-295
  GI50: 91 µM (inactive)
Malme-3M
  GI50: > 100 µM (inactive)
IGROV-1
  GI50: 87.3 µM (inactive)
U-251
  GI50: 38.7 µM (inactive)
HL-60
  GI50: > 100 µM (inactive)
SN12C
  GI50: 67.1 µM (inactive)
K562
  GI50: 61 µM (inactive)
NCI-H460
  GI50: > 100 µM (inactive)
OVCAR-3
  GI50: > 100 µM (inactive)
SF-539
  GI50: 20.7 µM (inactive)
MDA-N
  GI50: > 100 µM (inactive)
PC-3
  GI50: > 100 µM (inactive)
OVCAR-8
  GI50: 41.9 µM (inactive)
SNB-75
  GI50: 25.1 µM (inactive)
M14
  GI50: > 100 µM (inactive)
HCT-15
  GI50: > 100 µM
COLO 205
  GI50: > 100 µM (inactive)
Hs-578T
  GI50: 33.7 µM (inactive)
UO-31
  GI50: 38.5 µM (inactive)
LOX IMVI
  GI50: 52 µM (inactive)
RPMI-8226
  GI50: > 100 µM (inactive)
NCI-H226
  GI50: 31.9 µM (inactive)
NCI/ADR-RES
  GI50: 45.5 µM (inactive)
EKVX
  GI50: > 100 µM (inactive)
HT-29
  GI50: > 100 µM (inactive)
MDA-MB-435
  GI50: > 100 µM (inactive)
CAKI-1
  GI50: > 100 µM (inactive)
SK-MEL-2
  GI50: > 100 µM (inactive)
HCT-116
  GI50: > 100 µM (inactive)
CCRF-CEM
  GI50: > 100 µM (inactive)
HCC 2998
  GI50: > 100 µM (inactive)
A549
  GI50: > 100 µM (inactive)
MOLT-4
  GI50: > 100 µM (inactive)
T47D
  GI50: 60.7 µM (inactive)
SK-MEL-5
  GI50: > 100 µM (inactive)
